Measurements from paper PMC6792352, “Limited Chemical Structural Diversity Found to Modulate Thyroid Hormone Receptor in the Tox21 Chemical Library” (Environmental Health Perspectives, 2019).
Where two headings read alike, the source gives them in different places.

Experiments:
[1] = system: thyroid hormone receptor (endogenous TRα and TRβ); assay: GH3-TRE-Ag primary qHTS, luciferase reporter, agonist mode (TOX21_TR_LUC_GH3_Agonist, aeid 803); type: cell-based, rat; conditions: for GH3-TRE-Ag AC50 hitc: hit call from tcpl
[2] = system: thyroid hormone receptor (endogenous TRα and TRβ); assay: GH3-TRE-Ag-Followup confirmation (TOX21_TR_LUC_GH3_Agonist_Followup, aeid 2226); type: cell-based, rat; conditions: for GH3-TRE-Ag-Followup hitc: hit call from tcpl; for AC50: read-out: GH3-TRE-Ag-Followup AC50
[3] = system: GH3-TRE-Luc cell line
[4] = system: Tox21 cell viability assays (different cell types); assay: Global cytotoxicity: eighteen Tox21 cell viability assays; type: cell-based
[5] = system: thyroid hormone receptor (TR); assay: Classification of TR actives across characterization assays (TR-Ag / RXR-Ag; TR model binary); set-up: key to Categorization Code: FP, false positive; conditions: for Categorization Code: TR agonist characterization
Description: Active rate comparison between receptors. […]; [Kleinstreuer et al. 2017]). We first removed chemicals classified as pharmaceuticals because these sets of chemicals are biased toward drugs targeting estrogen receptors and androgen receptors. […]. For TR, we cross-referenced these same chemicals for testing against TR and used candidate chemicals in Tables 2 and 3 to define active rates.
Complete results from both GH3-TRE qHTS agonist, antagonist, and viability mode for the 8,305 compounds are provided in Excel Table S2. […]. […]. Together with some potential false negatives, these chemicals, totaling 84 in all, were screened for activity in a series of assays for confirmation in the GH3-TRE-Ag assay; specificity screening in the TRβ-UAS-bla HEK 293T and RXRα-UAS-bla HEK 293T mammalian one-hybrid assays; viability assays for the HEK293T parental cell line; and orthogonal screening in two TR:coactivator recruitment assays, TRa-coa and TRb-coa. […].

[6] = in vitro; conditions: rat, gh3-tre-luc cells
[7] = target: T1, human RXRα (Homo sapiens, UniProt P19793); assay: RXRa-bla-Ag mammalian one-hybrid beta-lactamase assay (TOX21_TR_RXR_BLA_Agonist_Followup_ratio, aeid 2253); type: cell-based; conditions: for tr-followup-rxr-bla-agonist-1 hitc: hit call from tcpl; for AC50: read-out: tr-followup-rxr-bla-agonist-1 AC50
T1 construct: host or cells: GeneBLAzer UAS-bla HEK 293T
T1 sequence (P19793 227-458 limits assumed): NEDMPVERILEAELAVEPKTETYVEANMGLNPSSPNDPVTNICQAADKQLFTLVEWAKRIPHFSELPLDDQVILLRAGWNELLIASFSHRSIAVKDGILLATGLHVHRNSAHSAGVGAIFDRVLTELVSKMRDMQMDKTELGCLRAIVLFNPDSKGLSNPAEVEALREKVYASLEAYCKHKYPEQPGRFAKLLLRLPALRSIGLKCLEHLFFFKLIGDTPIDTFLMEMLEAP

[8] = system: GH3-TRE-Luc cell line; assay: GH3-TRE-Via cell viability, CellTiter-Fluor (TOX21_TR_LUC_GH3_Antagonist_viability, aeid 805)
[9] = target: T2, TRα ligand-binding domain (Homo sapiens, UniProt P10827); assay: TRa-coa LanthaScreen TR-FRET coactivator (SRC-2 peptide) recruitment, agonist (TOX21_TRA_COA_Agonist_Followup_ratio, aeid 2230); type: biochemical; conditions: for TRa-coa hitc: hit call from tcpl
T2 construct: the receptor LBDs expressed as glutathione S-transferase (GST) fusion proteins; purchased
T2 sequence (P10827 163-410 isoform P10827-2 limits assumed, other chains not shown): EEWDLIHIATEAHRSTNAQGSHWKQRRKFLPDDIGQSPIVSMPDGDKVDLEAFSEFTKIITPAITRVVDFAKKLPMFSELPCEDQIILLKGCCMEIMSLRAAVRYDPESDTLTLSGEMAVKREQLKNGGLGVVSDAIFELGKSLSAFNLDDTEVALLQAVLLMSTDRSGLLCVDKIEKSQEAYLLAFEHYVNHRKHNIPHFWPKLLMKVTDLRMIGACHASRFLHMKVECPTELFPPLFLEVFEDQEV

[10] = target: T3, human TRβ ligand-binding domain (Homo sapiens, UniProt P10828); assay: TRb-coa LanthaScreen TR-FRET coactivator (SRC-2 peptide) recruitment, agonist (TOX21_TRB_COA_Agonist_Followup_ratio, aeid 2244); type: biochemical; set-up: host or cells: GeneBLAzer UAS-bla HEK 293T; conditions: for TRb-coa hitc: hit call from tcpl
T3 sequence (P10828 217-461 limits assumed): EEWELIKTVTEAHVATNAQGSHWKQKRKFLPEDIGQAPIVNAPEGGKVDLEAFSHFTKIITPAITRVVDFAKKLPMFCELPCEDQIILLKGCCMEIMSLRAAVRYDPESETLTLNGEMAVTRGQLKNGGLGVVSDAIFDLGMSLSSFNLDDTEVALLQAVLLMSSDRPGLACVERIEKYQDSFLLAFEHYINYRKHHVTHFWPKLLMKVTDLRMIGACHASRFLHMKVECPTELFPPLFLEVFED

[11] = target: T3, human TRβ ligand-binding domain; assay: TRb-bla agonist mammalian one-hybrid beta-lactamase assay (TOX21_TRB_BLA_Agonist_Followup_ratio, aeid 2236); type: cell-based; set-up: host or cells: GeneBLAzer UAS-bla HEK 293T; conditions: for TRb-bla hitc: hit call from tcpl
[12] = read-out: TR_LUC_GH3_Antagonist_viability AC50

SMILES	GH3-TRE-Ag AC50 hitc [1]	EMax (% of Control) gh3-tre-agonist-followup-1_agonist [2]	GH3-TRE-Ag-Followup hitc [2]	TR_LUC_GH3_Antagonist_viability hitc [3]	GLOBAL CYTOTOXICITY cytotox.median [4]	GLOBAL CYTOTOXICITY cytotox.number_Active [4]	Categorization Code [5]	EMax (% of Control) gh3-tre-agonist [1]	tr-followup-rxr-bla-agonist-1 hitc [7]	AC50 [7] [µM]	EMax (% of Control) tra-coa-agonist-followup-1 [9]	TRa-coa hitc ([9]; agonist)	AC50 [2] [µM]	EMax (% of Control) tr-followup-rxr-bla-agonist-1 [7]	EMax (% of Control) trb-coa-agonist-followup-1 [10]	TRb-coa hitc ([10]; agonist)	AC50 [8, 12] [µM]	TRb-bla hitc ([11]; agonist)	also measured
N[C@@H](Cc1cc(I)c(Oc2ccc(O)c(I)c2)c(I)c1)C(=O)[O-].[Na+] [3,3ʹ,5-Triiodo-L-thyronine sodium salt, reference compound]	1	96.5 % of Control	1	0	>92	0	TR-Ag												TR_LUC_GH3_Agonist_EMAX (% Control) ([1]; Table S5): 108.5 % Control; AC50 [3]: > 92 µM; AC50 [4]: > 92 µM; Classification ([5]; TR-Ag = TR agonist, RXR-Ag = RXR agonist): TR-Ag
Nc1ccc(S(=O)(=O)Nc2nccs2)cc1 [Sulfathiazole]	0	19.5 % of Control	0		>92	0	FP	1.9 % of Control	0	> 92									AC50 ([1]; read-out: GH3-TRE-Ag AC50): > 92 µM; CC50 at 24 h ([6]; AC50 (uM) modified / 1000): > 50 µM; TR_LUC_GH3_Antagonist_viability hitc ([3]; rat, 24 h): 0; Emax ([7]; read-out: EMax (% of Control) tr-followup-rxr-bla-agonist-1): 30%; AC50 ([8]; Rattus norvegicus, read-out: TR_LUC_GH3_Antagonist_viability AC50 (uM)): > 92 µM
N[C@@H](Cc1ccc(Oc2cc(I)c(O)c(I)c2)c(I)c1)C(=O)O [3,3',5'-Triiodo-L-thyronine]	1	87.2 % of Control	1	0	>92	0	TR-Ag	111.6 % of Control	0	> 92	152.6 % of Control	1	0.537	17.4 % of Control	117.6 % of Control	1	> 92	1	EMax (% of Control) trb-bla-agonist-followup-1 [11]: 93.8 % of Control
CC(C)(c1ccccc1)c1ccc(O)c(C(C)(C)c2ccccc2)c1 [2,4-Bis(1-methyl-1-phenylethyl)phenol]	0	33.5 % of Control	1				FP	22.3 % of Control	0	> 92	9.2 % of Control	0	5.35	12.1 % of Control	13.4 % of Control	0	11.2	0	AC50 ([9]; agonist, read-out: TRa-coa AC50): > 92 µM; CC50 at 24 h ([6]; AC50 (uM) modified / 1000, Tox21_110001=Tox21_202456, viability, 1 nM T3 present, 24 h): 13.3 µM; CC50 at 24 h ([6]; AC50 (uM) modified / 1000, Tox21_110001=Tox21_300317, viability, 1 nM T3 present, 24 h): 11.2 µM; GLOBAL CYTOTOXICITY cytotox.number_Active ([4]; # active of 18 total Tox21 viability assays): 17; GLOBAL CYTOTOXICITY cytotox.median ([4]; median over Tox21 viability assays): 24.3; AC50 ([10]; agonist, read-out: TRb-coa AC50): > 92 µM; TR_LUC_GH3_Antagonist_viability hitc ([8]; hit call from tcpl): 1; AC50 ([11]; agonist, read-out: TRb-bla AC50): > 92 µM
